Experimental findings from ChEMBL document CHEMBL4184207, “Novel compounds with potent CDK9 inhibitory activity for the treatment of myeloma” (Bioorg Med Chem Lett, 2018) are described below.

For one assay, the target named is CDK9/cyclin T1 (Homo sapiens, UniProt P50750). Nature of the assay: Inhibition of N-terminal GST-HIS6 fusion protein tagged human full length CDK9 (M1 to F372 residues)/N-terminal GST-HIS6 fusion protein tagged human Cyclin-T1 (M1 to K726 residues) expressed in Sf9 cells at 10 uM using TAMRA-Rbtide substrate and ATP incubated for 1 hr by fluorescent polarization assay.
CDK9/cyclin T1, sequence (O60563 whole entry, the tested form may be a part): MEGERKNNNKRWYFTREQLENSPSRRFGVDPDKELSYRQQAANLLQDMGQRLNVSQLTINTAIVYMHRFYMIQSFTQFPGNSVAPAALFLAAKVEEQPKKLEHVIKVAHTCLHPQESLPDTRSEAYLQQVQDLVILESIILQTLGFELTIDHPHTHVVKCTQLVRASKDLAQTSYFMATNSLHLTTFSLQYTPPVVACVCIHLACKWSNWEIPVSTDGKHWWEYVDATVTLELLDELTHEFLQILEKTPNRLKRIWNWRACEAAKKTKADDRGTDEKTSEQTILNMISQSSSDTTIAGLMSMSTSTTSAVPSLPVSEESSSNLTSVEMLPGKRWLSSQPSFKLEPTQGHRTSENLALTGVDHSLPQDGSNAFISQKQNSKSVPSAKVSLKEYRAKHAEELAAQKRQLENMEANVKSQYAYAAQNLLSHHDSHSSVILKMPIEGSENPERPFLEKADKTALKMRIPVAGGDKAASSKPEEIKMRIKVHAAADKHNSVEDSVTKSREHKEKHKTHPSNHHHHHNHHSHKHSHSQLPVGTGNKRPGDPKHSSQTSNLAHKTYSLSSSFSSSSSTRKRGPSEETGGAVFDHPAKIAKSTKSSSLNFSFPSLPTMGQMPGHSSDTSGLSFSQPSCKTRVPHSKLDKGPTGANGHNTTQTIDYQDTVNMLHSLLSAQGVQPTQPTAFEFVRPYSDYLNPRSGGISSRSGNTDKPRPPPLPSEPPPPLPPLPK
CDK9/cyclin T1, sequence (P50750 whole entry, the tested form may be a part): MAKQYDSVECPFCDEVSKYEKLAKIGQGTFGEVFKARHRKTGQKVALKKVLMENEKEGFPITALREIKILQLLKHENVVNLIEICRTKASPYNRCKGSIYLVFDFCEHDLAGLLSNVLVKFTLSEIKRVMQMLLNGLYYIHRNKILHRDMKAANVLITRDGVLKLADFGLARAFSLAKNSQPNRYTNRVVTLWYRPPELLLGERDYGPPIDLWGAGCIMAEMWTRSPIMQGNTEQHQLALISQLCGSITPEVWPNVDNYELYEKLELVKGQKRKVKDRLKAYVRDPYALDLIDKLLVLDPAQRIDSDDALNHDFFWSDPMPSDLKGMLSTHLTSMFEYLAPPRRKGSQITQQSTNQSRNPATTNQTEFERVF

In assay [1] the target is T1, Serine/threonine-protein kinase PLK1 (Homo sapiens, UniProt P53350). Nature of the assay: Inhibition of human PLK1 kinase domain at 10 uM using 5-TAMRA-RGSFNDTLDFD-NH2 substrate and ATP incubated for 90 mins by fluorescent polarization assay.
T1 sequence (P53350 whole entry, the tested form may be a part): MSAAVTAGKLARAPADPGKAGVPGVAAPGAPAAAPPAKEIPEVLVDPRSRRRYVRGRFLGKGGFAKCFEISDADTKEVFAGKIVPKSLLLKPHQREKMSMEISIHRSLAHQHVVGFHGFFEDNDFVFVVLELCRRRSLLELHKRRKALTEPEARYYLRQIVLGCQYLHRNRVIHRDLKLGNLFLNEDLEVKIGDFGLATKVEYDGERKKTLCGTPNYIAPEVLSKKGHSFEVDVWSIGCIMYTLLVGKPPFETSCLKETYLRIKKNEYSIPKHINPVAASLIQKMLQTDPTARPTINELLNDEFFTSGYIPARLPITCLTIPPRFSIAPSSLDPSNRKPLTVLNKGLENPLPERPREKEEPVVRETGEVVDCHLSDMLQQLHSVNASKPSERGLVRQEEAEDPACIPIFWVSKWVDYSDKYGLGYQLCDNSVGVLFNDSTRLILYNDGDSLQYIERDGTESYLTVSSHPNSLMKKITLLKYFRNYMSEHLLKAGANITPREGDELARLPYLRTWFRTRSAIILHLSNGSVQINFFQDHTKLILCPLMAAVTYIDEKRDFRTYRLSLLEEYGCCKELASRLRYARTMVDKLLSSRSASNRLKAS
The subject of the next assay is RPMI-8226. The assay is described as follows: Antiproliferative activity against human RPMI8226 cells assessed as inhibition of cell proliferation incubated for 72 hrs by Cell-titer-Glo luminescent cell viability assay. The format is functional, cell-based. The conditions noted are these: RPMI-8226, 72 h.
Assay [2] deals with CDK7/Cyclin H/MNAT1 (Homo sapiens) (UniProt P51946+P50613+P51948). The assay is described as follows: Inhibition of N-terminal GST-HIS6 fusion protein tagged human CDK7 (M1 to F346 residues)/N-terminal HIS6-tagged human Cyclin-H (M1 to L323 residues)/N-terminal HIS6-tagged human MAT1 (M1 to S306 residues) expressed in Sf9 cells at 1 uM using RB-CTF substrate and ATP incubated for 1 hr by fluorescent polarization assay.

Assay [3] has as its target T1, Serine/threonine-protein kinase PLK1. Nature of the assay: Inhibition of human PLK1 kinase domain using 5-TAMRA-RGSFNDTLDFD-NH2 substrate and ATP incubated for 90 mins by fluorescent polarization assay.
The target in assay [4] is CDK2/Cyclin A2 (Homo sapiens) (UniProt P24941+P20248). The assay is described as follows: Inhibition of human full length CDK2 (M1 to L298 residues)/human full length Cyclin-A2 (M1 to L432 residues) expressed in Sf9 cells at 1 uM using TAMRA-histone H1-derived peptide substrate and ATP incubated for 1 hr by fluorescent polarization assay.

For `COc1ccc(-c2ccnc(Nc3ccc(S(=O)(=O)Nc4onc(C)c4C)cc3)n2)c(OC)c1`, the IC50 (commonly the concentration needed to halve the response being measured) against CDK9/cyclin T1 is 9 nM. For the same molecule, the inhibition (as a rule, the drop in the measured response relative to a control, in per cent) in assay [1] was found to be 34%.
In the case of `COc1ccccc1-c1ccnc(Nc2ccc(S(=O)(=O)Nc3noc(C)c3C)cc2)n1`, the IC50 against CDK9/cyclin T1 was determined as 4 nM; in the assay on RPMI-8226, 12300 nM.
Take `COc1cc(F)ccc1-c1ccnc(Nc2ccc(S(=O)(=O)Nc3nnc(C)s3)cc2)n1`: the IC50 against CDK9/cyclin T1 was found to be 6 nM.
Molecule `COc1cc(F)c(Nc2nccc(-c3ccc(F)cc3OC)n2)cc1C(N)=O` came in with an IC50 at CDK9/cyclin T1 of more than 12500 nM.
As for `CCOc1cc(Cl)ccc1-c1ccnc(Nc2ccc(S(=O)(=O)Nc3onc(C)c3C)cc2)n1`, 17 nM corresponded to half-maximal inhibition on CDK9/cyclin T1 (IC50). In assay [1], this molecule showed an inhibition of 5%.
As for `COc1cc(F)c(Nc2nccc(-c3c(F)cccc3OC)n2)cc1C(N)=O`, the IC50 on CDK9/cyclin T1 was more than 12500 nM; with RPMI-8226 it was 20500 nM.
For `COc1cc(F)c(Nc2nccc(-c3ccccc3OC)n2)cc1C(N)=O`, the IC50 was 1580 nM against CDK9/cyclin T1 and 21500 nM in the assay with RPMI-8226.
In the case of `CCOc1cccc(F)c1-c1ccnc(Nc2ccc(S(=O)(=O)Nc3onc(C)c3C)cc2)n1`, the figures for the IC50 (against CDK9/cyclin T1; in assay [3]) were 2 nM and more than 12500 nM, respectively. The inhibition amounted to 0% in assay [2] and 14% in assay [4].
Consider `CCOc1cc(F)ccc1-c1ccnc(Nc2ccc(S(=O)(=O)Nc3nccs3)cc2)n1`, for which, on CDK9/cyclin T1, the IC50 turned out to be 210 nM.
Turning to `COc1cc(F)ccc1-c1ccnc(Nc2ccc(S(=O)(=O)Nc3noc4ccccc34)cc2)n1`, the figures for the IC50 against CDK9/cyclin T1 and in the assay on RPMI-8226 were 5 nM and 15500 nM, respectively.
Regarding `COc1ccccc1-c1ccnc(Nc2ccc(S(=O)(=O)Nc3nccs3)cc2)n1`, the IC50 at CDK9/cyclin T1 worked out at 33 nM; in the assay with RPMI-8226, 24700 nM.
In the case of `COc1ccccc1-c1ccnc(Nc2cccc(Cn3cnc4ccccc43)c2)n1`, the IC50 against CDK9/cyclin T1 is 3 nM; in assay [3] it was more than 12500 nM; with RPMI-8226, 1340 nM. In addition, the inhibition in assay [2] is 0%; in assay [4] it was 9%.
In turn, `COc1cc(F)c(Nc2nccc(-c3ccc(F)cc3F)n2)cc1C(N)=O` returned an IC50 on CDK9/cyclin T1 of more than 12500 nM.
In turn, `COc1cc(F)ccc1-c1ccnc(Nc2ccc(-c3c(C)noc3C)cc2)n1` showed an IC50 against CDK9/cyclin T1 of more than 12500 nM.
In the case of `COc1ccccc1-c1ccnc(Nc2ccc(S(=O)(=O)Nc3onc(C)c3C)cc2)n1`, the IC50 on CDK9/cyclin T1 came to 3 nM; in the assay with RPMI-8226, 29200 nM. The inhibition in assay [1] was 56%.
On CDK9/cyclin T1, `COc1cc(F)c(-c2ccnc(Nc3ccc(S(=O)(=O)Nc4onc(C)c4C)cc3)n2)c(F)c1` gave an IC50 of 21 nM.
`COc1ccc(F)cc1-c1ccnc(Nc2ccc(S(=O)(=O)Nc3onc(C)c3C)cc2)n1` had an IC50 at CDK9/cyclin T1 of 9 nM.
`CCOc1cc(F)ccc1-c1ccnc(Nc2cc(C(N)=O)c(OC)cc2F)n1`: the IC50 on CDK9/cyclin T1 is more than 12500 nM.
With `COc1cccc(F)c1-c1ccnc(Nc2ccc(S(=O)(=O)Nc3nnc(C)s3)cc2)n1`, the IC50 is 2 nM against CDK9/cyclin T1 and more than 12500 nM in assay [3]. The inhibition in assay [2] was determined as 2%; in assay [4], 29%.
Regarding `COc1cc(F)c(F)cc1-c1ccnc(Nc2ccc(S(=O)(=O)Nc3onc(C)c3C)cc2)n1`, at CDK9/cyclin T1, half-maximal inhibition (IC50) was put at 8 nM. In addition, the inhibition in assay [1] came to 37%.
In turn, `COc1ccc(-c2ccnc(Nc3ccc(S(=O)(=O)Nc4nnc(C)s4)cc3)n2)c(OC)c1` gave an IC50 against CDK9/cyclin T1 of 14 nM.
`COc1ccc(F)cc1-c1ccnc(Nc2ccc(S(=O)(=O)Nc3nnc(C)s3)cc2)n1` registered an IC50 at CDK9/cyclin T1 of 9 nM.
The molecule `Cc1noc(NS(=O)(=O)c2ccc(Nc3nccc(-c4ccc(Cl)cc4Cl)n3)cc2)c1C` registered an IC50 on CDK9/cyclin T1 of 50 nM.
As for `COc1ccc(F)c(F)c1-c1ccnc(Nc2ccc(S(=O)(=O)Nc3onc(C)c3C)cc2)n1`, the IC50 on CDK9/cyclin T1 came out at 1 nM; in assay [3] it was 5910 nM. The values for the inhibition in assay [2], in assay [1] and in assay [4] were 2%, 75% and 83%, respectively.
`Cc1noc(NS(=O)(=O)c2ccc(Nc3nccc(-c4ccc(F)cc4F)n3)cc2)c1C`: half-maximal inhibition against CDK9/cyclin T1 (IC50) was put at 11 nM. In addition, in assay [1], the inhibition came out at 55%.
Consider `COc1cc(F)ccc1-c1cc(Nc2ccc(S(=O)(=O)Nc3onc(C)c3C)cc2)ncn1`, for which the IC50 on CDK9/cyclin T1 came to 40 nM.
Turning to `COc1cccc(F)c1-c1ccnc(Nc2ccc(S(=O)(=O)Nc3nccs3)cc2)n1`, the IC50 on CDK9/cyclin T1 is 2 nM; in assay [3], more than 12500 nM. In addition, the inhibition in assay [2] is 0%; in assay [4] it was 46%.
`COc1cc(F)ccc1-c1ccnc(Nc2ccc(C(=O)O)cc2)n1` displayed an IC50 at CDK9/cyclin T1 of 66 nM.
On to `CCOc1cc(F)ccc1-c1ccnc(Nc2ccc(S(=O)(=O)Nc3nnc(C)s3)cc2)n1`, for which the IC50 against CDK9/cyclin T1 stood at 2 nM.
In turn, `COc1cc(F)c(Nc2nccc(-c3cc(F)c(F)cc3OC)n2)cc1C(N)=O` had a concentration for half-maximal inhibition (IC50) at CDK9/cyclin T1 of more than 12500 nM.
With `COc1cc(F)ccc1-c1ccnc(Nc2ccc(S(=O)(=O)Nc3onc(C)c3C)cc2)n1`, the results for the concentration for half-maximal inhibition (IC50) (against CDK9/cyclin T1; in assay [3]) were 2 nM and more than 12500 nM, respectively. Also, the inhibition stood at 3% in assay [2], 35% in assay [1] and 43% in assay [4].
For the molecule `COc1cc(F)ccc1-c1ccnc(Nc2ccc(S(=O)(=O)Nc3noc(C)c3C)cc2)n1`, the IC50 was 3 nM against CDK9/cyclin T1 and more than 12500 nM in assay [3]. Besides, the inhibition in assay [2] and in assay [4] was 0% throughout.
For the molecule `COc1ccc(F)c(F)c1-c1ccnc(Nc2ccc(S(=O)(=O)Nc3nnc(C)s3)cc2)n1`, the figures for the IC50 (against CDK9/cyclin T1; in assay [3]; in the assay with RPMI-8226) were 0.4 nM, more than 12500 nM and 11700 nM, respectively. For the same molecule, the inhibition worked out at 7% in assay [2] and 50% in assay [4].
`CSc1cc(F)ccc1-c1ccnc(Nc2ccc(S(=O)(=O)Nc3onc(C)c3C)cc2)n1` gave an IC50 at CDK9/cyclin T1 of 13 nM.
On the same count and under the same terms, in the case of `CCOc1cc(Cl)ccc1-c1ccnc(Nc2cc(C(N)=O)c(OC)cc2F)n1` it was more than 12500 nM; in that of `COc1cccc(Cl)c1-c1ccnc(Nc2ccc(S(=O)(=O)Nc3onc(C)c3C)cc2)n1`, 25 nM.
On to `COc1cccc(F)c1-c1ccnc(Nc2ccc(S(=O)(=O)Nc3onc(C)c3C)cc2)n1`, for which the IC50 on CDK9/cyclin T1 is 1 nM; in assay [3], 12400 nM; in the assay with RPMI-8226 it was 26600 nM. The inhibition in assay [2] was 1%; in assay [4], 44%.
`Cc1noc(NS(=O)(=O)c2ccc(Nc3nccc(-c4ccc(F)cc4Cl)n3)cc2)c1C` showed an IC50 on CDK9/cyclin T1 of 55 nM.
As to `Cc1cc(F)ccc1-c1ccnc(Nc2ccc(S(=O)(=O)Nc3onc(C)c3C)cc2)n1`, the midpoint of inhibition against CDK9/cyclin T1, the IC50, lay at 6 nM.
As for `COc1cc(Cl)ccc1-c1ccnc(Nc2ccc(S(=O)(=O)Nc3onc(C)c3C)cc2)n1`, the IC50 against CDK9/cyclin T1 came out at 12 nM.
The molecule `Cc1noc(NS(=O)(=O)c2ccc(Nc3nccc(-c4ccc(F)cc4OC(C)C)n3)cc2)c1C` gave an IC50 on CDK9/cyclin T1 of 49 nM. The molecule further had an inhibition in assay [1] of 13%.
In turn, `COc1cc(F)c(F)cc1-c1ccnc(Nc2ccc(S(=O)(=O)Nc3nnc(C)s3)cc2)n1` yielded an IC50 against CDK9/cyclin T1 of 10 nM.
As for `COc1cc(F)ccc1-c1ccnc(Nc2ccc(C(=O)Nc3onc(C)c3C)cc2)n1`, half-maximal inhibition against CDK9/cyclin T1 (IC50) required 135 nM.
For the molecule `COc1cc(F)c(Nc2nccc(-c3ccc(F)cc3OC(C)C)n2)cc1C(N)=O`, at CDK9/cyclin T1, the IC50 was more than 12500 nM.
Molecule `CCOc1cc(Cl)ccc1-c1ccnc(Nc2ccc(S(=O)(=O)Nc3nccs3)cc2)n1` gave a 50% inhibitory concentration (IC50) against CDK9/cyclin T1 of 378 nM.
On to `COc1ccccc1-c1ccnc(Nc2ccc(S(=O)(=O)Nc3nnc(C)s3)cc2)n1`, for which, on CDK9/cyclin T1, the IC50 was 12 nM.
Take `CCOc1cc(Cl)ccc1-c1ccnc(Nc2ccc(S(=O)(=O)Nc3nnc(C)s3)cc2)n1`: the IC50 at CDK9/cyclin T1 stood at 5 nM.
As to `CCOc1cc(F)ccc1-c1ccnc(Nc2ccc(S(=O)(=O)Nc3onc(C)c3C)cc2)n1`, the IC50 on CDK9/cyclin T1 came to 8 nM. The inhibition in assay [1] is 11%.
For the molecule `COc1cc(F)ccc1-c1ccnc(Nc2cccc(Cn3cnc4ccccc43)c2)n1`, the IC50 on CDK9/cyclin T1 was determined as 4 nM.
Turning to `Cc1noc(NS(=O)(=O)c2ccc(Nc3nccc(-c4cccc(OC(C)C)c4F)n3)cc2)c1C`, the IC50 against CDK9/cyclin T1 came out at 458 nM. The inhibition in assay [1] turned out to be 65%.
For `COc1cc(F)ccc1-c1ccnc(Nc2ccc(S(=O)(=O)Nc3nccs3)cc2)n1`, the IC50 on CDK9/cyclin T1 was 122 nM.
Turning to `COc1cccc(F)c1-c1ccnc(Nc2cccc(Cn3cnc4ccccc43)c2)n1`, the IC50 against CDK9/cyclin T1 was 2 nM; in assay [3], more than 12500 nM; with RPMI-8226, 1780 nM. The inhibition stood at 0% in assay [2] and 44% in assay [4].
